Results from US11161819B2, “Substituted tetrahydroisoquinoline compounds useful as GPR120 agonists” (Merck Sharp & Dohme Corp., priority 2016, dated 2021).

These compounds were tested against T1, human GPR120 (Homo sapiens, UniProt Q5NUL3) (assay: Human GPR120 IP1 Assay (inositol phosphate turnover, CisBio IP-One kit)). Conditions: IP1 accumulation in CHO-K1 cells stably expressing the short form of human GPR120; 60 min compound incubation; 4-parameter fit; read-out: hGPR120 EC50.
T1 construct: expressed in transfected cells
T1 sequence (Q5NUL3 1-361): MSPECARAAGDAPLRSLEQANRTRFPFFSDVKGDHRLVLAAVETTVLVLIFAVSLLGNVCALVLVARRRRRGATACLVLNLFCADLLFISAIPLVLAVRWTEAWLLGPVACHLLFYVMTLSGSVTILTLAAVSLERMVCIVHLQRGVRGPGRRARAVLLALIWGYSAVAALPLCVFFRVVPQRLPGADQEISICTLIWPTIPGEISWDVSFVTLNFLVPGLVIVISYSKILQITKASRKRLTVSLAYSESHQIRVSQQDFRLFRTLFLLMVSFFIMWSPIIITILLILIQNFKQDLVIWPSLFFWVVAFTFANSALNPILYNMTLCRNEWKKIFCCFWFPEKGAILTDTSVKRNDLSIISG
Format: cell-based
Excerpt: Human GPR120 IP1 Assay Principle
The binding of small molecule agonists to the G-protein-coupled receptor GPR120 activates phospholipase C, and leads to the generation of inositol 1,4,5-trisphosphate (InsP3 or IP3). IP3 is subsequently de-phosphorylated to IP1, which accumulates in cells and is stable in the presence of lithium chloride.
In the present method, agonist-induced activation of the human GPR120 receptor was monitored by measuring the accumulation of IP1 in CHO-K1 cells that were stably expressing the short form of human GPR120 (Accession #NM_001195755). Following agonist addition, GPR120 activation and subsequent accumulation of IP1 was measured using a homogeneous Time Resolved Fluorescence-based ELISA commercially available from CisBio (IP-one ELISA Kit). The IP-One ELISA was a competitive immunoassay which uses IP1 labeled with […] and a terbium cryptate-labeled anti-IP1 monoclonal antibody. […] The signal loss was then back calculated to IP1 concentration using an IP1 standard curve. Determination of IP1 concentration was a direct measure of GPR120 activation and was used to determine compound potency (EC50).
Generation of GPR120-Expressing Cells:
Human GPR120 stable cell-lines were generated in CHO cells. The expression plasmids were transfected using lipofectamine (Life Technologies) following manufacturer's instructions. Stable cell-lines were generated following drug selection and single cell cloning.
Inositol Phosphate Turnover (IP1) Assay:
The assay was performed in 384-well format. CHO cells stably expressing human GPR120 were plated at […] per well in growth medium (DMEM/F12, 10% fetal calf serum). Cell plates were then incubated 16 hours at 37 degrees in a 5% CO2 incubator. Measurement of Inositol Phosphate Turnover (IP1) was performed using the CisBio IP-One kit (Part number 62IPAPEB). After the 16 hour incubation, the growth media was removed by centrifugation using the BlueWasher (AusWasher GUI Ver. v1.0.1.8) Protocol #21-“Light Dry” and 10 ul of stimulation buffer (prepared as described in the kit) was added to each well. In a separate plate, compounds were diluted in DMSO (200-fold over the final concentration in the assay well) and 50 nl was acoustically transferred to the appropriate well in the assay cell plate. The plates were then incubated for 60 minutes at 37 degrees in a 5% CO2 incubator. 10 ul of detection buffer (also prepared as described in the IP-One kit) was added to each well and the plates were incubated at room temperature for 60 minutes in the dark. The plates were then read in a Perkin Elmer EnVision or equivalent reader able to measure FRET. Fluorescent ratio of emission at 665 and 620 nm was then converted to the IP1 concentration by back calculating from an IP1 standard curve prepared at the time of the assay. The data was normalized to % activity using a reference compound, and the EC50 values were determined using a standard 4-parameter fit.
`Cc1cc2c(c(F)c1CCC(=O)O)CCN(c1cc(OC(F)(F)F)ccc1F)C2` [Example 58, 3-(5-fluoro-2-(2-fluoro-5-(trifluoromethoxy)phenyl)-7-methyl-1,2,3,4-tetra-hydroisoquinolin-6-yl)propanoic acid] was tested, and the EC50 was 472 nM.
In the case of `O=C(O)CCc1ccc2c(c1F)CCN(c1c(-c3ccc(Cl)cc3)nsc1C(F)(F)F)C2` [Example 59, 3-(2-(3-(4-chlorophenyl)-5-(trifluoromethyl)isothiazol-4-yl)-5-fluoro-1,2,3,4-tetrahydroisoquinolin-6-yl)propanoic acid], the EC50 is reported as 1630 nM.
`O=C(O)CCc1ccc2c(c1F)CCN(c1cc(OC3CCC3)ccc1F)C2` [Example 61, 3-(2-(5-cyclobutoxy-2-fluorophenyl)-5-fluoro-1,2,3,4-tetrahydro-isoquinolin-6-yl)-propanoic acid] gave an EC50 of 28 nM.
Compound `Cc1cnc(Oc2cc(Cl)c(F)c(N3CCc4c(ccc(CCC(=O)O)c4F)C3)c2)s1` [Example 62, 3-(2-{3-chloro-2-fluoro-5-[(5-methyl-1,3-thiazol-2-yl)oxy]phenyl}-5-fluoro-1,2,3,4-tetrahydroisoquinolin-6-yl)propanoic acid] has an EC50 of 3 nM.
With `O=C(O)CCc1ccc2c(c1F)CCN(c1nc(OC3CCC3)ccc1F)C2` [Example 63, 3-{2-[6-(cyclobutyloxy)-3-fluoro-pyridin-2-yl]-5-fluoro-1,2,3,4-tetra-hydro-isoquinolin-6-yl} propanoic acid] the EC50 was 14 nM.
Work on `O=C(O)CCc1ccc2c(c1F)CCN(c1cc(OC3CCC3)cc(F)c1F)C2` [Example 64, 3-{2-[5-(cyclobutyloxy)-2,3-difluorophenyl]-5-fluoro-1,2,3,4-tetra-hydroisoquinolin-6-yl}propanoic acid] yielded an EC50 of 15 nM.
`O=C(O)CCc1ccc2c(c1F)CCN(c1cc(OC(F)(F)F)cc(Cl)c1F)C2` [Example 65, 3-{2-[3-chloro-2-fluoro-5-(trifluoromethoxy)phenyl]-5-fluoro-1,2,3,4-tetra-hydroisoquinolin-6-yl} propanoic acid] showed an EC50 of 37 nM.
`CO[C@H]1C[C@H](Oc2cc(F)c(F)c(N3CCc4c(ccc(CCC(=O)O)c4F)C3)c2)C1` [Example 66, 3-(2-{2,3-difluoro-5-[(trans-3-methoxycyclobutyl)oxy]phenyl}-5-fluoro-1,2,3,4-tetrahydroisoquino-lin-6-yl)-propanoic acid] showed an EC50 of 41 nM.
With `O=C(O)CCc1ccc2c(c1Cl)CCN(c1cc(OC(F)(F)F)ccc1F)C2` [Example 72, 3-{5-chloro-2-[2-fluoro-5-(trifluoromethoxy)phenyl]-1,2,3,4-tetrahydroiso-quinolin-6-yl}propanoic acid] the EC50 was 1170 nM.
With `N#Cc1ccc(OC2CCC2)cc1N1CCc2c(ccc(CCC(=O)O)c2F)C1` [Example 76, 3-{2-[2-cyano-5-(cyclobutyloxy)-phenyl]-5-fluoro-1,2,3,4-tetrahydro-isoquinolin-6-yl}propanoic acid] the EC50 was 845 nM.
`CC(Cc1ccc2c(c1F)CCN(c1cc(OC(F)(F)F)ccc1F)C2)C(=O)O` (stereo not shown) [Example 77, 3-{5-fluoro-2-[2-fluoro-5-(trifluoromethoxy)phenyl]-1,2,3,4-tetrahydro-isoquinolin-6-yl}-2-methyl-propanoic acid] showed an EC50 of 5880 nM.
With `N#Cc1ccc(OC(F)(F)F)cc1N1CCc2c(ccc(CCC(=O)O)c2F)C1` [Example 78, 3-{2-[2-cyano-5-(trifluoromethoxy)phenyl]-5-fluoro-1,2,3,4-tetrahydro-isoquinolin-6-yl}propanoic acid] the EC50 was 19 nM.
`CC(Cc1ccc2c(c1F)CCN(c1cc(OC3CCC3)cc(F)c1C#N)C2)C(=O)O` (stereo not shown) [Example 79, 3-(2-(2-cyano-5-cyclobutyloxy-3-fluorophenyl)-5-fluoro-1,2,3,4-tetra hydroisoquinolin-6-yl)-2-methyl-propanoic acid] gave an EC50 of 471 nM.
With `O=C(O)CCc1ccc2c(c1F)CCN(c1cc(OC(F)(F)F)ccc1F)C2` [Example 80, 3-{5-fluoro-2-[2-fluoro-5-(trifluoromethoxy)phenyl]-1,2,3,4-tetrahydro-isoquinolin-6-yl}propanoic acid] the EC50 was 3120 nM.
Work on `O=C(O)CCc1ccc2c(c1F)CCN(c1cc(OC3CCC3)ccc1F)C2` [Example 81, 3-{2-[5-(cyclobutyloxy)-2-fluoro-phenyl]-5-fluoro-1,2,3,4-tetrahydro-isoquinolin-6-yl}propanoic acid] yielded an EC50 of 48 nM.
Work on `O=C(O)[C@@H]1C[C@H]1c1ccc2c(c1)CCN(c1cc(OC3CCC3)cc(F)c1F)C2` [Example 85, (1R,2R)-2-{2-[5-(cyclobutyloxy)-2,3-difluorophenyl]-1,2,3,4-tetra-hydroisoquinolin-6-yl}cyclo-propane-carboxylic acid] yielded an EC50 of 40 nM.
For `O=C(O)[C@@H]1C[C@H]1c1ccc2c(c1)CCN(c1cc(OC(F)(F)F)ccc1F)C2` [Example 87, (1R,2R)-2-{2-[2-fluoro-5-(trifluoro-methoxy)phenyl]-1,2,3,4-tetra hydroisoquinolin-6-yl}cyclo-propane carboxylic acid], the EC50 was 74 nM.
Compound `O=C(O)[C@H]1C[C@@H]1c1ccc2c(c1)CCN(c1cc(OC(F)(F)F)ccc1F)C2` [Example 88, (1S,2S)-2-{2-[2-fluoro-5-(trifluoro-methoxy)phenyl]-1,2,3,4-tetra hydroisoquinolin-6-yl}cyclo-propane carboxylic acid] has an EC50 of 110 nM.
For `CO[C@H]1C[C@H](Oc2cc(C#N)c(F)c(N3CCc4cc([C@@H]5C[C@H]5C(=O)O)ccc4C3)c2)C1` [Example 89, (1R,2R)-2-(2-{3-cyano-2-fluoro-5-[(trans-3-methoxycyclobutyl)oxy]phenyl}-1,2,3,4-tetrahydro-isoquinolin-6-yl)cyclopropane-carboxylic acid], the EC50 was 185 nM.
With `O=C(O)[C@H]1C[C@@H]1c1ccc2c(c1)CCN(Cc1cc(OC(F)(F)F)ccc1F)C2` [Example 90, (1S,2S)-2-{2-[2-fluoro-5-(trifluoro-methoxy)benzyl]-1,2,3,4-tetra hydroisoquinolin-6-yl}cyclo-propane carboxylic acid] the EC50 was 250 nM.
With `O=C(O)[C@H]1C[C@@H]1c1ccc2c(c1)CCN(c1cc(OC3CCC3)cc(Cl)c1F)C2` [Example 91, (1S,2S)-2-{2-[3-chloro-5-(cyclobutyloxy)-2-fluorophenyl]-1,2,3,4-tetrahydroisoquinolin-6-yl} cyclopropane carboxylic acid] the EC50 was 59 nM.
In the case of `Cc1nn(-c2ccc(F)cc2)c(N2CCc3cc(C4CC4C(=O)O)ccc3C2)c1F` (stereo not shown) [Example 92, 2-{2-[4-fluoro-1-(4-fluorophenyl)-3-methyl-1H-pyrazol-5-yl]-1,2,3,4-tetrahydroisoquinolin-6-yl} cyclo-propanecarboxylic acid], the EC50 is reported as 482 nM.
Compound `O=C(O)[C@H]1C[C@@H]1c1ccc2c(c1)CCN(Cc1cc(C(F)(F)F)cc(Cl)c1F)C2` [Example 93, (1S,2S)-2-{2-[3-chloro-2-fluoro-5-(trifluoromethyl)benzyl]-1,2,3,4-tetrahydroisoquinolin-6-yl} cyclopropanecarboxylic acid] has an EC50 of 350 nM.
Compound `Cc1ccc(-n2nc(C)c(F)c2N2CCc3cc(C4CC4C(=O)O)ccc3C2)cc1` (stereo not shown) [Example 94, 2-{2-[4-fluoro-3-methyl-1-(4-methylphenyl)-1H-pyrazol-5-yl]-1,2,3,4-tetrahydroisoquinolin-6-yl}cyclo-propanecarboxylic acid] has an EC50 of 473 nM.
`Cc1nn(-c2ccc(F)cc2)c(N2CCc3cc(C4CC4C(=O)O)ccc3C2)c1F` (stereo not shown) [Example 95, 2-{2-[4-fluoro-1-(4-fluorophenyl)-3-methyl-1H-pyrazol-5-yl]-1,2,3,4-tetrahydroisoquinolin-6-yl} cyclo-propanecarboxylic acid] was tested, and the EC50 was 491 nM.
